The values below come from patent publication US11603377B2, “MTORC1 modulators and uses thereof” (Aeovian Pharmaceuticals, Inc., priority 2020, dated 2023).

For experiment [1], the target named is FKBP12 (Homo sapiens (Human), UniProt P62942). Kind of experiment: SPR assay to determine binding affinity to FKBP12 (direct binding). The following applies: immobilized biotinylated avi-FKBP12.
Experiment [2] addresses FKBP51 (Homo sapiens (Human), UniProt Q13451). Kind of experiment: SPR assay to determine binding affinity to FKBP51 (direct binding). The settings on record: immobilized biotinylated avi-FKBP51. The essentials:
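Biotinylated avi-FKBP51 captured on streptavidin chip to about 2000 RU. Compounds injected at 0.5-1000 nM (8 points, 3-fold) for 120 s contact and 3600 s dissociation in 50 mM HEPES pH 7.5, 150 mM NaCl, 2 mM MgCl2, 1 mM DTT, 0.05% Tween-20, 1% DMSO.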
A general note: Surface plasmon resonance follows binding to a sensor surface in real time, without labels.

Experiment [3] concerns the target FKBP12 / FRB ternary complex (Homo sapiens (Human), UniProt P42345+P62942). The experiment is described as follows: SPR assay to characterize ternary complex formation with FKBP12 (FRB binding to rapalog-saturated FKBP12). The following applies: FRB dilutions with 100 nM rapalog on immobilized FKBP12. The essentials:
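Biotinylated avi-FKBP12 immobilized (~100 RU) on streptavidin chip; A-B-A injections kept FKBP12 saturated with 100 nM rapalog while FRB (0.00011–20 μM, 3-fold, 12 points) was injected 120 s.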

For experiment [4], the target named is FKBP51 / FRB ternary complex (Homo sapiens (Human), UniProt P42345+Q13451). Kind of experiment: SPR assay to characterize ternary complex formation with FKBP51 (FRB binding to rapalog-saturated FKBP51). The settings on record: FRB dilutions with 100 nM rapalog on immobilized FKBP51. The essentials:
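SPR with biotinylated avi-FKBP51 on streptavidin chip (~200 RU); FRB (0.00011-20 μM, 3-fold series) injected with 100 nM rapalog, A-B-A mode keeping FKBP saturated with rapalog.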

Experiment [5] deals with mTORC1 (Homo sapiens (Human), UniProt P42345+P62942). Kind of experiment: mTORC1 inhibition, AlphaLISA of Phospho-p70 S6 kinase (p70S6K pT389) in PC-3 cells. Type of experiment: cell-based. The following applies: inhibition of p70S6K pT389 levels.
The target of experiment [6] is mTORC2 (Homo sapiens (Human), UniProt P42345+P62942). Kind of experiment: mTORC2 inhibition, AlphaLISA of Phospho-AKT (pAKT pS473) in PC3 cells. Type of experiment: cell-based. For orientation: Alpha assays give light when donor and acceptor beads are brought close together.

The structures appear in SMILES notation. Where only a bound is given, the exact number is not on record here.

FKBP12, sequence (P62942 whole entry): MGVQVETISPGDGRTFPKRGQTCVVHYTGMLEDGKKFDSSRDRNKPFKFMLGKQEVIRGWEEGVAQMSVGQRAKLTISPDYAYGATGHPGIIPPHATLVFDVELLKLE
FKBP51, sequence (Q13451 whole entry): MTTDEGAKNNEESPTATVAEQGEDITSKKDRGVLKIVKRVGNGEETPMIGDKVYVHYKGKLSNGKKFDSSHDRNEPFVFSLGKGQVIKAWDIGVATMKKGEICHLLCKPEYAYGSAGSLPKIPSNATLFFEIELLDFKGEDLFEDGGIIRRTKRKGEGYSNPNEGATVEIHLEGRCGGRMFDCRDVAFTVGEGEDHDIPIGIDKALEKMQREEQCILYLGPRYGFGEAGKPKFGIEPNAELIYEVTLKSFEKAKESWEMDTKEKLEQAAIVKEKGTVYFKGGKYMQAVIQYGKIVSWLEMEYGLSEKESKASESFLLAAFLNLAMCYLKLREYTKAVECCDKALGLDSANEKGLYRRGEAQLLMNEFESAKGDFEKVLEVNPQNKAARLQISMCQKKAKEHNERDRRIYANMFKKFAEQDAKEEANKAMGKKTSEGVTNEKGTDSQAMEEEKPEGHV

A word on the Kd: it is the equilibrium constant for the complex coming apart. A word on the IC50: it is the concentration needed to halve the response being measured. Read a low IC50 as greater potency. Consider `CO[C@@H]1C[C@H](C[C@@H](C)[C@@H]2CC(=O)[C@H](C)/C=C(\C)[C@@H](O)[C@@H](OC)C(=O)[C@H](C)C[C@H](C)/C=C/C=C/C=C(\C)[C@H](NS(=O)(=O)CC3CCCC3)C[C@@H]3CC[C@@H](C)[C@@](O)(O3)C(=O)C(=O)N3CCCC[C@H]3C(=O)O2)CC[C@H]1O` [Compound 22], for which the dissociation constant (Kd) was under 0.3 nM in experiment [1], over 100 nM in experiment [2], over 800 nM in experiment [3] and over 800 nM in experiment [4]. In experiment [5], the IC50 is 0.1 to 0.8 nM. Further, the “mTORC2 % inhibition at 1 uM” value in experiment [6] is listed as “A (A ≤20% inhibition at 1 micro Molar (uM))”.

On to `CO[C@@H]1C[C@H](C[C@@H](C)[C@@H]2CC(=O)[C@H](C)/C=C(\C)[C@@H](O)[C@@H](OC)C(=O)[C@H](C)C[C@H](C)/C=C/C=C/C=C(\C)[C@@H](NS(=O)(=O)CC3CCCC3)C[C@@H]3CC[C@@H](C)[C@@](O)(O3)C(=O)C(=O)N3CCCC[C@H]3C(=O)O2)CC[C@H]1O` [Compound 23], for which the Kd in experiment [1] was under 0.3 nM; in experiment [2], 10 to 100 nM; in experiment [3], over 800 nM; in experiment [4] it was over 800 nM. The compound further had an IC50 in experiment [5] of over 0.8 nM. The “mTORC2 % inhibition at 1 uM” value in experiment [6] is given as “A (A ≤20% inhibition at 1 micro Molar (uM))”.

As for `COCCOCCOCCS(=O)(=O)N[C@H]1C[C@@H]2CC[C@@H](C)[C@@](O)(O2)C(=O)C(=O)N2CCCC[C@H]2C(=O)O[C@H]([C@H](C)C[C@@H]2CC[C@@H](O)[C@H](OC)C2)CC(=O)[C@H](C)/C=C(\C)[C@@H](O)[C@@H](OC)C(=O)[C@H](C)C[C@H](C)/C=C/C=C/C=C/1C` [Compound 25], the Kd is under 0.3 nM in experiment [1], 10 to 100 nM in experiment [2], 300 to 800 nM in experiment [3] and over 800 nM in experiment [4]. The compound further registered an IC50 in experiment [5] of 0.1 to 0.8 nM. The “mTORC2 % inhibition at 1 uM” value in experiment [6] is given as “A (A ≤20% inhibition at 1 micro Molar (uM))”.

For `CO[C@@H]1C[C@H](C[C@@H](C)[C@@H]2CC(=O)[C@H](C)/C=C(\C)[C@@H](O)[C@@H](OC)C(=O)[C@H](C)C[C@H](C)/C=C/C=C/C=C(\C)[C@@H](OC3CCS(=O)(=O)C3)C[C@@H]3CC[C@@H](C)[C@@](O)(O3)C(=O)C(=O)N3CCCC[C@H]3C(=O)O2)CC[C@H]1O` (stereo partly drawn) [Compound 26], the Kd was under 0.3 nM in experiment [1], over 100 nM in experiment [2], over 800 nM in experiment [3] and over 800 nM in experiment [4]. Also, the IC50 in experiment [5] is over 0.8 nM. Besides, the “mTORC2 % inhibition at 1 uM” value in experiment [6] is recorded as “A (A ≤20% inhibition at 1 micro Molar (uM))”.

Turning to `CO[C@@H]1C[C@H](C[C@@H](C)[C@@H]2CC(=O)[C@H](C)/C=C(\C)[C@@H](O)[C@@H](OC)C(=O)[C@H](C)C[C@H](C)/C=C/C=C/C=C(\C)[C@@H](OCCC3CCS(=O)(=O)C3)C[C@@H]3CC[C@@H](C)[C@@](O)(O3)C(=O)C(=O)N3CCCC[C@H]3C(=O)O2)CC[C@H]1O` (stereo partly drawn) [Compound 27], the Kd in experiment [1] is under 0.3 nM; in experiment [2] it was 10 to 100 nM; in experiment [3], over 800 nM; in experiment [4], over 800 nM. The same compound had a half-inhibitory concentration (IC50) in experiment [5] of over 0.8 nM. Besides, the “mTORC2 % inhibition at 1 uM” value in experiment [6] is listed as “A (A ≤20% inhibition at 1 micro Molar (uM))”.

As to `CO[C@@H]1C[C@H](C[C@@H](C)[C@@H]2CC(=O)[C@H](C)/C=C(\C)[C@@H](O)[C@@H](OC)C(=O)[C@H](C)C[C@H](C)/C=C/C=C/C=C(\C)[C@@H](OCCC3CCO3)C[C@@H]3CC[C@@H](C)[C@@](O)(O3)C(=O)C(=O)N3CCCC[C@H]3C(=O)O2)CC[C@H]1O` (stereo partly drawn) [Compound 28], the Kd in experiment [1] is under 0.3 nM; in experiment [2], 10 to 100 nM; in experiment [3], over 800 nM; in experiment [4], over 800 nM. This compound displayed a concentration for half-maximal inhibition (IC50) in experiment [5] of 0.1 to 0.8 nM. In addition, the “mTORC2 % inhibition at 1 uM” value in experiment [6] is “B (B>20% and less than 40% inhibition at 1 uM)”.

As to `CO[C@@H]1C[C@H](C[C@@H](C)[C@@H]2CC(=O)[C@H](C)/C=C(\C)[C@@H](O)[C@@H](OC)C(=O)[C@H](C)C[C@H](C)/C=C/C=C/C=C(\C)[C@@H](OCC3CCS(=O)(=O)C3)C[C@@H]3CC[C@@H](C)[C@@](O)(O3)C(=O)C(=O)N3CCCC[C@H]3C(=O)O2)CC[C@H]1O` (stereo partly drawn) [Compound 30], the Kd in experiment [1] was under 0.3 nM; in experiment [2], 10 to 100 nM; in experiment [3] it was over 800 nM; in experiment [4], over 800 nM. The IC50 in experiment [5] was over 0.8 nM. In addition, the “mTORC2 % inhibition at 1 uM” value in experiment [6] is reported as “A (A ≤20% inhibition at 1 micro Molar (uM))”.

Take `CO[C@@H]1C[C@H](C[C@@H](C)[C@@H]2CC(=O)[C@H](C)/C=C(\C)[C@@H](O)[C@@H](OC)C(=O)[C@H](C)C[C@H](C)/C=C/C=C/C=C(\C)[C@@H](OCC3CCOC3)C[C@@H]3CC[C@@H](C)[C@@](O)(O3)C(=O)C(=O)N3CCCC[C@H]3C(=O)O2)CC[C@H]1O` (stereo partly drawn) [Compound 31]: the Kd was under 0.3 nM in experiment [1], 10 to 100 nM in experiment [2], over 800 nM in experiment [3] and over 800 nM in experiment [4]. Also, the 50% inhibitory concentration (IC50) in experiment [5] fell in the range of 0.1 to 0.8 nM. The “mTORC2 % inhibition at 1 uM” value in experiment [6] is “A (A ≤20% inhibition at 1 micro Molar (uM))”.

In the case of `CO[C@@H]1C[C@H](C[C@@H](C)[C@@H]2CC(=O)[C@H](C)/C=C(\C)[C@@H](O)[C@@H](OC)C(=O)[C@H](C)C[C@H](C)/C=C/C=C/C=C(\C)[C@@H](OCCC3CCOC3)C[C@@H]3CC[C@@H](C)[C@@](O)(O3)C(=O)C(=O)N3CCCC[C@H]3C(=O)O2)CC[C@H]1O` (stereo partly drawn) [Compound 32], the Kd in experiment [1] is under 0.3 nM; in experiment [2] it was 10 to 100 nM; in experiment [3], 300 to 800 nM; in experiment [4] it was over 800 nM. Moreover, the IC50 in experiment [5] lay in the range of 0.1 to 0.8 nM. In addition, the “mTORC2 % inhibition at 1 uM” value in experiment [6] is “A (A ≤20% inhibition at 1 micro Molar (uM))”.

For the compound `COC1CC(CC(C)C2CC(=O)C(C)C=C(C)C(O)C(OC)C(=O)C(C)CC(C)C=CC=CC=C(C)C(OC3CCOCC3)CC3CCC(C)C(O)(O3)C(=O)C(=O)N3CCCCC3C(=O)O2)CCC1O` (stereo not drawn) [Compound 33], the dissociation constant (Kd) in experiment [1] is under 0.3 nM; in experiment [2], 10 to 100 nM; in experiment [3], over 800 nM; in experiment [4], over 800 nM. This compound also returned a half-maximal inhibitory concentration (IC50) in experiment [5] of over 0.8 nM. Besides, in experiment [6], the “mTORC2 % inhibition at 1 uM” value is listed as “A (A ≤20% inhibition at 1 micro Molar (uM))”.

With `CO[C@@H]1C[C@H](C[C@@H](C)[C@@H]2CC(=O)[C@H](C)/C=C(\C)[C@@H](O)[C@@H](OC)C(=O)[C@H](C)C[C@H](C)/C=C/C=C/C=C(\C)[C@@H](OCCC3COC3)C[C@@H]3CC[C@@H](C)[C@@](O)(O3)C(=O)C(=O)N3CCCC[C@H]3C(=O)O2)CC[C@H]1O` [Compound 34], the Kd in experiment [1] was under 0.3 nM; in experiment [2], 10 to 100 nM; in experiment [3], over 800 nM; in experiment [4], over 800 nM. The concentration for half-maximal inhibition (IC50) in experiment [5] was over 0.8 nM. For the same compound, the “mTORC2 % inhibition at 1 uM” value in experiment [6] was “A (A ≤20% inhibition at 1 micro Molar (uM))”.

Consider `COC1CC(CC(C)C2CC(=O)C(C)C=C(C)C(O)C(OC)C(=O)C(C)CC(C)C=CC=CC=C(C)C(OC3CCOC3)CC3CCC(C)C(O)(O3)C(=O)C(=O)N3CCCCC3C(=O)O2)CCC1O` (stereo not drawn) [Compound 35], for which the dissociation constant (Kd) was under 0.3 nM in experiment [1], under 10 nM in experiment [2], over 800 nM in experiment [3] and over 800 nM in experiment [4]. The same compound showed an IC50 in experiment [5] of over 0.8 nM. In addition, in experiment [6], the “mTORC2 % inhibition at 1 uM” value was “A (A ≤20% inhibition at 1 micro Molar (uM))”.

Consider `COC1CC(CC(C)C2CC(=O)C(C)C=C(C)C(O)C(OC)C(=O)C(C)CC(C)C=CC=CC=C(C)C(OCC3CCC3)CC3CCC(C)C(O)(O3)C(=O)C(=O)N3CCCCC3C(=O)O2)CCC1O` (stereo not drawn) [Compound 36], for which the Kd in experiment [1] is under 0.3 nM; in experiment [2] it was over 100 nM; in experiment [3], 300 to 800 nM; in experiment [4], over 800 nM. The same compound gave an IC50 in experiment [5] of 0.1 to 0.8 nM. In addition, the “mTORC2 % inhibition at 1 uM” value in experiment [6] was “B (B>20% and less than 40% inhibition at 1 uM)”.
